According to patent US20190330224A1, “ACC INHIBITORS AND USES THEREOF” (Gilead Apollo, LLC, priority 2015, published 2019):
Values after ≈ are worked out from the molar mass of the structure shown.

Tests used:
[1] = test system: Fusarium moniliforme (Fm); assay: Growth inhibition assay of fungal pathogens, Fm; assay type: cell-based; settings: Fusarium verticillioides; 48 hours; read-out: Concentration at 90% Inhibition, Fm
Procedure: (§1) Compounds of the present invention were evaluated in a growth inhibition assay to determine the ability to control the growth of fungal pathogens, such as Botrtyis cinerea (Bc). Collectotrichum graminicola (Cg), Diplodia maydis (Dm), Fusarium moniliforme (Fm), Fusarium virguliforme (Fv), Phytophthora capsici (Pc), Rhizoctonia solani (Rs), and Septoria tritici (St). Compounds to be tested were dissolved in DMSO at 2.5 mg/ml to produce compound stock solutions (“stocks”). Stocks were diluted with DMSO by a five-fold dilution in a 96-well stock plate, and two sets of final concentrations of 50, 10, and 2 ppm or 2, 0.4, and 0.08 ppm were obtained in vitro. A set of positive controls was also prepared, with various concentrations of Soraphen (2, 0.4, and 0.08 ppm), Metalaxyl (1.1, 0.22, and 0.04 ppm), and Metconazole (2, 0.4, and 0.08 ppm or 0.2, 0.04, and 0.008 ppm) after the five-fold dilutions. Negative controls on each plate included 2% DMSO, water, and a blank (media+2% DMSO). Fungal spores were isolated from previously sub-cultured plates of Botrtyis cinerea (Bc), Collectotrichum graminicola (Cg), Diplodia maydis (Dm), Fusarium moniliforme (Fm), Fusarium virguliforme (Fv), Phytophthora capsici (Pc), and Septoria tritici (St). The isolated spores were diluted to individual concentrations with a 17% V8 liquid media. For Rhizoctonia solani (Rs) and Pythium irregulare, 1.5 mm mycelial plugs were used in place of spores and ¼ Potato Dextrose Broth (PDB) was used for dilution. The spore concentrations and plug sizes were based on growth curves generated at 48 hours for each pathogen. In a second 96-well plate, the spores or mycelial plugs, media, diluted compound solutions, and controls were combined. Once the compound was added, a true final concentration of compound in each well was measured by an OD600 reading, which adjusted for any compound precipitation that might have occurred in the well. Plate readings were repeated at both 24 and 48 hours. The blank negative control was used as a background subtraction. Additional visual ratings were performed at both 24 and 48 hours for checking on precipitation and confirming efficacy. Visual and OD600 ratings of the compounds at 48 hours were compared to the 2% DMSO negative control, and the percent of pathogen growth inhibition was determined based on those values.

[2] = test system: Blumeria graminis f sp. hordei; assay: Foliar protection test, barley powdery mildew control; assay type: in vivo, Blumeria graminis f sp. hordei on Hordeum vulgare cv. Perry; settings: 168 h, compound concentration 50 ppm, foliar spray, evaluated 7 days after inoculation, read-out: Barley Powdery Mildew Control at 50 ppm
Procedure: Compounds of the present invention were evaluated in a foliar protection test to determine the ability to control barley powdery mildew. Plants (Hordeum vulgare cv. Perry) were grown for 6 days in 2-inch square pots containing Metromix 200 medium amended with fertilizer. For propagation, plants were maintained in a growth chamber at conditions of 20 to 21° C., 16 hour light cycle, 400 uM of light, 70% humidity, and with sub-irrigation as needed. After inoculation with the pathogen of Blumeria graminis f sp. hordei, plants were kept at conditions of 20 to 22° C., 70% relative humidity, and 200 uM of light to facilitate infection and disease development. At 6 days after planting (1st true leaf fully expanded), the test compounds were dissolved in a solution of 5% acetone and 0.005% Tween 80 surfactant. An atomizer was used for applying the solution onto both sides of the leaves until thoroughly wetted. The amount of the compound applied to the leaves was typically 200, 100, 50, 10, or 2 ppm, but it may vary. At 24 hours after treatment, the plants were moved to a cooler chamber and inoculated by shaking well-colonized, untreated stock plants above the treated plants. This allowed producing a settling cloud of spores and resulting in uniform infection. Efficacy was evaluated in 7 days later by examining leaves for colonization and growth of mildew. Table 5 lists the results of barley powdery mildew control at a compound concentration of 50 ppm or 10 ppm. Compounds having an activity designated as “AA” provided a compound having >85% control of barley powdery mildew; compounds having an activity designated as “A” provided a compound having from 70% to 84% control of barley powdery mildew; compounds having an activity designated as “B” provided a compound having from 50 to 69% control of barley powdery mildew; compounds having an activity designated as “C” provided a compound having from 25 to 49% control of barley powdery mildew; and compounds having an activity designated as “D” provided a compound having <25% control of barley powdery mildew.

Botrtyis cinerea (Bc) = assay: Growth inhibition assay of fungal pathogens, Bc; assay type: cell-based; settings: 48 hours; read-out: Concentration at 90% Inhibition, Bc
Procedure: as §1

Septoria tritici (St) = assay: Growth inhibition assay of fungal pathogens, St; assay type: cell-based; settings: Zymoseptoria tritici; 48 hours; read-out: Concentration at 90% Inhibition, St
Procedure: as §1

[3] = compound concentration 10 ppm, foliar spray, evaluated 7 days after inoculation
[4] = test system: Fusarium virguliforme (Fv); assay: Growth inhibition assay of fungal pathogens, Fv; assay type: cell-based; settings: 48 hours, read-out: Concentration at 90% Inhibition, Fv
Procedure: as §1

[5] = test system: Collectotrichum graminicola (Cg); assay: Growth inhibition assay of fungal pathogens, Cg; assay type: cell-based; settings: 48 hours; read-out: Concentration at 90% Inhibition, Cg
Procedure: as §1

C. krusei ATCC 6258 = assay: Anti-Fungal Activity Assay (broth microtiter MIC), C. krusei; assay type: cell-based, Candida krusei; settings: Pichia kudriavzevii, ATCC6258, 48 h, 3 replicates; MIC recorded at 48 h; read-out: MIC C. krusei ATCC 6258
Summary of the method: (§2)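 MIC taken as visual growth inhibition versus the growth control, mostly at 48 h (soraphen also at 24 h). Following CLSI M27-A3, colonies grown overnight at 35° C on Sabouraud dextrose agar were suspended in RPMI 1640+MOPS; test agents came from 1 mg/mL DMSO stocks.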

[6] = test system: C. parapsilosis ATCC 22019; assay: Anti-Fungal Activity Assay (broth microtiter MIC), C. parapsilosis; assay type: cell-based, Candida parapsilosis; settings: Lodderomyces parapsilosis, ATCC22019, 48 h, 3 replicates; MIC recorded at 48 h; read-out: MIC C. parapsilosis ATCC 22019
Summary of the method: as §2

Diplodia maydis (Dm) = assay: Growth inhibition assay of fungal pathogens, Dm; assay type: cell-based; settings: Stenocarpella maydis; 48 hours; read-out: Concentration at 90% Inhibition, Dm
Procedure: as §1

Rhizoctonia solani (Rs) = assay: Growth inhibition assay of fungal pathogens, Rs; assay type: cell-based; settings: 48 hours, read-out: Concentration at 90% Inhibition, Rs
Procedure: as §1

C. albicans ATCC 90028 = assay: Anti-Fungal Activity Assay (broth microtiter MIC), C. albicans; assay type: cell-based, Candida albicans; settings: Candida albicans, ATCC90028, 48 h, 3 replicates; MIC recorded at 48 h; read-out: MIC C. albicans ATCC 90028
Summary of the method: as §2

[7] = test system: Phytophthora capsici (Pc); assay: Growth inhibition assay of fungal pathogens, Pc; assay type: cell-based; settings: 48 hours, read-out: Concentration at 90% Inhibition, Pc
Procedure: as §1

Human ACC2 = Human ACC2 (Homo sapiens, UniProt O00763); assay: In vitro ACC2 inhibition assay (ADP-Glo), human ACC2; assay type: biochemical; settings: 5 nM ACC2, 20 μM ATP, 20 μM acetyl-CoA
Sequence of Human ACC2 (O00763 whole entry): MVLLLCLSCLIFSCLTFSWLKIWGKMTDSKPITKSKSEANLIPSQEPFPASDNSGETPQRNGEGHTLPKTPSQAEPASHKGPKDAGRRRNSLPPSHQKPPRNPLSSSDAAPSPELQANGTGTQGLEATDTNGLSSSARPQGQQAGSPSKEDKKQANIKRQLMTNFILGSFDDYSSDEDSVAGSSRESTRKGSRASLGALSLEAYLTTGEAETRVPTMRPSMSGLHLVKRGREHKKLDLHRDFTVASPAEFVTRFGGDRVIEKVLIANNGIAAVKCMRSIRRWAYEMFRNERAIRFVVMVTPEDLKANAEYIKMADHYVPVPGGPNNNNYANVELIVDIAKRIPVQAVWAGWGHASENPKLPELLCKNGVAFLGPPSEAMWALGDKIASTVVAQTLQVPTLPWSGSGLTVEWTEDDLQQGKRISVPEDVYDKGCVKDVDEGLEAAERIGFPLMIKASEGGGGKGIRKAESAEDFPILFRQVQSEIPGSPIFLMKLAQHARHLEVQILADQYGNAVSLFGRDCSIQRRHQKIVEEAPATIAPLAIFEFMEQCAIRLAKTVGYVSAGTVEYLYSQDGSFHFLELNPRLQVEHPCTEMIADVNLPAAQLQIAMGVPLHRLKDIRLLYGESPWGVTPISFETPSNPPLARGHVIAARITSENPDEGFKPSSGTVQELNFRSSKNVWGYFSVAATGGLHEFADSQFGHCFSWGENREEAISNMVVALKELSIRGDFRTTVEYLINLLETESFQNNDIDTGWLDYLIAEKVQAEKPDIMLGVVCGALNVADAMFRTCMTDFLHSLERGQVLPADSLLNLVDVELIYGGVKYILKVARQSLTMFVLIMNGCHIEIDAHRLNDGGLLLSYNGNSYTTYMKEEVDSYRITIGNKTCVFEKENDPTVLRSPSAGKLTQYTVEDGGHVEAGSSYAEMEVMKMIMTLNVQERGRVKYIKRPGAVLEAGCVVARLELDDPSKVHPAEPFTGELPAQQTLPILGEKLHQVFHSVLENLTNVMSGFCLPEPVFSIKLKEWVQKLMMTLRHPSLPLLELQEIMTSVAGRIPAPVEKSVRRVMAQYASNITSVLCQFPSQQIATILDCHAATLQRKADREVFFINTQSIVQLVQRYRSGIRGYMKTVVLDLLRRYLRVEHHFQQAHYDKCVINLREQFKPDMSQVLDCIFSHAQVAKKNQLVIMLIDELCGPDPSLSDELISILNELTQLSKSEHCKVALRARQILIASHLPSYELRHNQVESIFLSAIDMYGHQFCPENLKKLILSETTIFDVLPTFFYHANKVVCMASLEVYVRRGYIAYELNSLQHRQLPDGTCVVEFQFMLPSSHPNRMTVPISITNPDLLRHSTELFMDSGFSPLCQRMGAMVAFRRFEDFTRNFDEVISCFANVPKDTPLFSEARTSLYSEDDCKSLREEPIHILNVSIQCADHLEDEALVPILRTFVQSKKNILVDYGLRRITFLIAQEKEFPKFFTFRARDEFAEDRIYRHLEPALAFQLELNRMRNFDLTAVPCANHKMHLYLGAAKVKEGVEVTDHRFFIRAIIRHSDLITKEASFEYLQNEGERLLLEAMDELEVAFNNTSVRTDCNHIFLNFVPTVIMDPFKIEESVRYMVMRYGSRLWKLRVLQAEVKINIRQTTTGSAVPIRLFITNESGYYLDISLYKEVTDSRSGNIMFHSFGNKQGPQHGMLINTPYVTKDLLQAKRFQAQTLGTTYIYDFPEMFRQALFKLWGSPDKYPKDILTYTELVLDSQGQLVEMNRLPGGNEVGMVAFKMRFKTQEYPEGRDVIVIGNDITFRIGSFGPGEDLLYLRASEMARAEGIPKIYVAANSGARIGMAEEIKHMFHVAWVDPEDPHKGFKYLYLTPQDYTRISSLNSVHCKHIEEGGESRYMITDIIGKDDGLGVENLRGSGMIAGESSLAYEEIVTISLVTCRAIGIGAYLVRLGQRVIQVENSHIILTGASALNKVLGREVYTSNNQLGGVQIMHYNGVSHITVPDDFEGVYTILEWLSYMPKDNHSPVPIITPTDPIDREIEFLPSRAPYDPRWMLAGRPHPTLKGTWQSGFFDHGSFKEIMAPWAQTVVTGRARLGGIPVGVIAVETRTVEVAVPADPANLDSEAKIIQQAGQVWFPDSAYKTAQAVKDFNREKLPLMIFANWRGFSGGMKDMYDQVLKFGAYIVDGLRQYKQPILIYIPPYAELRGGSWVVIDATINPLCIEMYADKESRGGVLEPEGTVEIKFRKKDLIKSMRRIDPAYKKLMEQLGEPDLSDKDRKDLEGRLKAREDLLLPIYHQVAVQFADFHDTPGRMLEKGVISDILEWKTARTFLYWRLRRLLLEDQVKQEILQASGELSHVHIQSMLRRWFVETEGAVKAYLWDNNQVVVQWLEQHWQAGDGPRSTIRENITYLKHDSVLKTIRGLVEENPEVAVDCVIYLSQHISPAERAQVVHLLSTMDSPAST

Fungal ACC2 = Fungal ACC2 (UniProt Q00955); settings: read-out: Fungal ACC2 (IC50, in vitro ACC2 inhibition)
Sequence of Fungal ACC2 (Q00955 whole entry): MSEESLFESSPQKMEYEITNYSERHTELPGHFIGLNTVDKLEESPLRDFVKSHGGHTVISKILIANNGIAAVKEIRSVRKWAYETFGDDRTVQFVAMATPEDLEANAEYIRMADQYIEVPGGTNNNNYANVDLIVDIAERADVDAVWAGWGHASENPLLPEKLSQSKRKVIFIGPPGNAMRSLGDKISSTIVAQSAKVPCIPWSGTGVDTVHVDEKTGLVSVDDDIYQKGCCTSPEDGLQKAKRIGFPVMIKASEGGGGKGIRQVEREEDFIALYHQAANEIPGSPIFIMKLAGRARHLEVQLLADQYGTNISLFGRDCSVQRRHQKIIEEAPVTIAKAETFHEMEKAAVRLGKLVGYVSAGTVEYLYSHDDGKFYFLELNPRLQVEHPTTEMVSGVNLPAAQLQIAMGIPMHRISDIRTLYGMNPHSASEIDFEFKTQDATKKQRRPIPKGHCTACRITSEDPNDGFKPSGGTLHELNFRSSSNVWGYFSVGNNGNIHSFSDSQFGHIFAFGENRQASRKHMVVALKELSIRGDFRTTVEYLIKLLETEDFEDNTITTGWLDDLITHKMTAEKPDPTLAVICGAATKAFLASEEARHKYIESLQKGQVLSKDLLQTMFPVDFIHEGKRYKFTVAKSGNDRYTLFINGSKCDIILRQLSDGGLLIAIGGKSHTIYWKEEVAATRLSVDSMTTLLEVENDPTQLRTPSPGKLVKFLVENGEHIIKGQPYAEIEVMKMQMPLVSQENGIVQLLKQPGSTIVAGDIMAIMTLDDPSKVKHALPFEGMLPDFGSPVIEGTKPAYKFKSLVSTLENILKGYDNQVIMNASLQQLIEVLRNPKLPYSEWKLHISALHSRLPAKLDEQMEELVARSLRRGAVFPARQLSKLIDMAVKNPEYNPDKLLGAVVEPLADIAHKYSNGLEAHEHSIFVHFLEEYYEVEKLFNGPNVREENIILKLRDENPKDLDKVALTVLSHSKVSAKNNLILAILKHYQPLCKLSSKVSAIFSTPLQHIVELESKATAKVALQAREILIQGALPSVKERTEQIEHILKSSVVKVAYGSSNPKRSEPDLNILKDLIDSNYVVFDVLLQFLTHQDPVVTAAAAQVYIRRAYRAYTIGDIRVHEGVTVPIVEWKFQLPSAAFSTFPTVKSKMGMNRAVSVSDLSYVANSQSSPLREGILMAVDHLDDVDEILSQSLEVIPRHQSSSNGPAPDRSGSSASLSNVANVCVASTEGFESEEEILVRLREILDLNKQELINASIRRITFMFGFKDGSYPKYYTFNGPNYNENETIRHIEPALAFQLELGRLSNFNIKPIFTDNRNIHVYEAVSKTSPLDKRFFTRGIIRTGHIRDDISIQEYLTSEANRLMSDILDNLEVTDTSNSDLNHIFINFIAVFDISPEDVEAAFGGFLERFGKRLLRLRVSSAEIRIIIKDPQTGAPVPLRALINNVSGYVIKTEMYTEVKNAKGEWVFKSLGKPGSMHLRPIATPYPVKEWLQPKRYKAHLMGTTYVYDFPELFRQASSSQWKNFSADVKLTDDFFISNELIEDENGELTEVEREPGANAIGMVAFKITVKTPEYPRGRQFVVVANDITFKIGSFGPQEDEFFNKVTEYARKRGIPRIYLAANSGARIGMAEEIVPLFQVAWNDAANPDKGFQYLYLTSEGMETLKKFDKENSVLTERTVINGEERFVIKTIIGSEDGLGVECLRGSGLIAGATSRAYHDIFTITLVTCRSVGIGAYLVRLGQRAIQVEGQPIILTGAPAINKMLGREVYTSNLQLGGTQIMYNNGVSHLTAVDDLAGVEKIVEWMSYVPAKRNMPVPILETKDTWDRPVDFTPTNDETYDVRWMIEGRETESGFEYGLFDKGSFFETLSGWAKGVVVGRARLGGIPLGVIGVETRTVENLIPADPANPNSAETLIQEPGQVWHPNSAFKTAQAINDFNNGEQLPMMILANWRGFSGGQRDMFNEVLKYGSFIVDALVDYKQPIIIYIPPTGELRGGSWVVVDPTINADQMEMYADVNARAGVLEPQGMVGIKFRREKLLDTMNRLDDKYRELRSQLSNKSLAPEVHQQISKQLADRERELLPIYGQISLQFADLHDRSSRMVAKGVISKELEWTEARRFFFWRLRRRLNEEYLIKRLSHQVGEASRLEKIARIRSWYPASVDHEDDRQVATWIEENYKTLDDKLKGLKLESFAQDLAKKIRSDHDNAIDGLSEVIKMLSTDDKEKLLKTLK

SMILES	IC90 [1]	pest or weed control at 50 ppm [2]	IC90 (Botrtyis cinerea (Bc))	IC90 (Septoria tritici (St))	Barley Powdery Mildew Control at 10 ppm [3]	IC90 [4]	IC90 [5]	MIC (C. krusei ATCC 6258)	MIC [6]	IC90 (Diplodia maydis (Dm))	IC90 (Rhizoctonia solani (Rs))	MIC (C. albicans ATCC 90028)	IC90 [7]	IC50 (Human ACC2)	IC50 (Fungal ACC2)
COc1ccc(F)cc1[C@H](Cn1c(=O)n([C@H]2CCN(C(C)C)C2=O)c(=O)c2c(C)c(-n3nccn3)sc21)OCCO [Compound I-84, 1-((R)-2-(5-fluoro-2-methoxyphenyl)-2-(2-hydroxy-ethoxy)ethyl)-3-((S)-1-isopropyl-2-oxopyrrolidin-3-yl)-5-methyl-6-(2H-1,2,3-triazol-2-yl)thieno[2,3-d]pyrimidine-2.4(1H,3H)-dione]	2 µg/mL (≈ 3.41 µM)	50 to 69%	2 µg/mL (≈ 3.41 µM)	> 50 µg/mL	D (provided a compound having <25% control of barley powdery mildew)	2 µg/mL (≈ 3.41 µM)	2 µg/mL (≈ 3.41 µM)	2.1 to 4 µg/mL (≈ 3.58 to 6.82 µM)	2.1 to 4 µg/mL (≈ 3.58 to 6.82 µM)	10 µg/mL (≈ 17 µM)	2 µg/mL (≈ 3.41 µM)	2.1 to 4 µg/mL (≈ 3.58 to 6.82 µM)	> 50 µg/mL	2 to 10 nM	
COCCO[C@@H](Cn1c(=O)n([C@@H]2CCCN(C(C)C)C2=O)c(=O)c2c(C)c(-n3nccn3)sc21)c1cc(F)ccc1OC [Compound I-79, 1-((R)-2-(5-fluoro-2-methoxyphenyl)-2-(2-methoxy-ethoxy)ethyl)-3-((R)-1-isopropyl-2-oxopiperidin-3-yl)-5-methyl-6-(2H-1,2,3-triazol-2-yl)thieno[2,3-d]pyrimidine-2,4(1H,3H)-dione]	10 µg/mL (≈ 16.3 µM)	50 to 69%	> 50 µg/mL	> 50 µg/mL		> 50 µg/mL	> 50 µg/mL	1.1 to 2 µg/mL (≈ 1.79 to 3.25 µM)	0.25 to 1 µg/mL (≈ 0.407 to 1.63 µM)	10 µg/mL (≈ 16.3 µM)	> 50 µg/mL	1.1 to 2 µg/mL (≈ 1.79 to 3.25 µM)	> 50 µg/mL	100 to 1000 nM	2 to 10 nM
COc1ccc(F)cc1[C@H](Cn1c(=O)n([C@H]2CCCN(C(C)C)C2=O)c(=O)c2c(C)c(-n3nccn3)sc21)OCCO [Compound I-74, 1-((R)-2-(5-fluoro-2-methoxyphenyl)-2-(2-hydroxy-ethoxy)ethyl)-3-((S)-1-isopropyl-2-oxopiperidin-3-yl)-5-methyl-6-(2H-1,2,3-triazol-2-yl)thieno[2,3-d]pyrimidine-2,4(1H,3H)-dione]	2 µg/mL (≈ 3.33 µM)	70 to 84%	2 µg/mL (≈ 3.33 µM)	> 50 µg/mL	D (provided a compound having <25% control of barley powdery mildew)	2 µg/mL (≈ 3.33 µM)	10 µg/mL (≈ 16.6 µM)			10 µg/mL (≈ 16.6 µM)	2 µg/mL (≈ 3.33 µM)		> 50 µg/mL	10 to 100 nM	
